Measurements reported in patent US6514980B1, “Nucleoside analogs in combination therapy of herpes simplex infections” (Novartis International Pharmaceutical Ltd., priority 1996, dated 2003).

System: HSV-1 (SC16)
Test: Cutaneous HSV-1 infection of the ear pinna in mice immunosuppressed with Cyclosporin A (second experiment)
Type: in vivo
Conditions: BALB/c mice immunosupressed with Cyclosporin A (second experiment) compared with immunocompetant mice (first experiment); oral antiviral treatment
Protocol: A cutaneous infection was established by inoculation of the ear pinnae of mice with HSV-1 (SC16) and the effects of oral famciclovir and valaciclovir on the latent virus infection was investigated.
BALB/c female mice (Bantin and Kingman, Kingston, Hull, UK) were purchased at 3 to 4 weeks old and inoculated one week later. Virus suspension (10 ul) containing 5×10^4 p.f.u. were inoculated into the skin of the left ear pinna. Skin thickness was measured daily in individual mice by means of an Engineers' micrometer screw gauge. (ref. Nash et al, 1980, J. Gen. Virol. 48, 351-357). Mice were killed daily and tissues removed for virus assays. Other mice were […]. The trigeminal ganglia and cervical dorsal root ganglia were removed and co-cultivated. Those cultures showing virus replication were recorded as positive.
In a first experiment, groups of immunocompetant mice were untreated (control), antiviral treatment was initiated on days 1, 2, 3, 4 or 5 post-infection (p.i.) and ceased on day 10 p.i.. The compounds were administered ad libitum in the drinking water, at 1 mg/ml (approximately 100 mg/kg/day).
In a second experiment, mice were immunosupressed with Cyclosporin A (CyA) from day-2 to day=10 (day 0 being the day of infection). […]

Structure (SMILES)	effect on virus replication and disease
CC(C)[C@H](N)C(=O)OCCOCn1cnc2c(=O)[nH]c(N)nc21 [valaciclovir]	significantly greater effect
CC(=O)OCC(CCn1cnc2cnc(N)nc21)COC(C)=O [famciclovir]	significantly greater effect
